According to article PMC10745882, “Investigation of Drug-Interaction Potential for Arthritis Dietary Supplements: Chondroitin Sulfate, Glucosamine, and Methylsulfonylmethane” (Molecules, 2023):

Columns and labels:
CYP2A6 = target: T1, CYP2A6 (Homo sapiens, UniProt P11509); experiment: CYP inhibition assay in human liver microsomes (LC-MS/MS cocktail), coumarin to 7-OH-coumarin; type: in vitro ADME
T1 construct: Pooled human liver microsomes were purchased from BD Gentest; tissue BD Gentest; host or cells: pooled human liver microsomes
T1 sequence (P11509 1-494): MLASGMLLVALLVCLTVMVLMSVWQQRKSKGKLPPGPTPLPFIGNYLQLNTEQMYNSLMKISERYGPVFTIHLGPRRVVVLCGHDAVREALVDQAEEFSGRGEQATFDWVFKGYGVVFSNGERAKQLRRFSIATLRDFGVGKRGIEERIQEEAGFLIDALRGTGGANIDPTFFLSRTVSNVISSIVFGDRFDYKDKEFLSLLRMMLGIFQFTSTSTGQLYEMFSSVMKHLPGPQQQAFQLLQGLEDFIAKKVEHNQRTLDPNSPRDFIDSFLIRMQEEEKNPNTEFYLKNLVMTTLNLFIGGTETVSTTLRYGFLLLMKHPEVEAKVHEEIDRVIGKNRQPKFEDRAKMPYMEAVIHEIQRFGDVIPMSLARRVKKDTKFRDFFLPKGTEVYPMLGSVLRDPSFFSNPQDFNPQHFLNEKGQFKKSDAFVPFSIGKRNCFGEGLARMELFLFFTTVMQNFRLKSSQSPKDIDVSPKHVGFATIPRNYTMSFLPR
Description: (§1) For the experimental method, the reference method was used. Briefly, incubation mixtures were composed of 0.5 mg/mL human liver microsomes; varying concentrations of CS in DW (0.1, 0.3, 1, 3, 10, 30, 100, and 200 µM) or MSM in DW (0.1, 0.3, 1, 3, 10, 30, 100, 300, and 1000 µM) or GCS in DMSO (0.1, 0.3, 1, 3, 10, 30, 100, 300, and 1000 µM); a substrate mixture in DMSO (40 µM phenacetin for CYP1A2; 2.5 µM coumarin for CYP2A6; 80 µM bupropion for CYP2B6; 10 µM diclofenac for CYP2C9; 80 µM [±]-mephenytoin for CYP2C19; 5 µM dextromethorphan for CYP2D6; 2.5 µM midazolam and 30 µM testosterone for CYP3A4); and an NADPH generating system (NGS; 0.1 M glucose-6-phosphate, 10 mg/mL β-NADP^+, and 1 U/mL glucose-6-phosphate dehydrogenase) in a total volume of 200 µL potassium phosphate buffer (0.1 M, pH 7.4). The reaction mixture, excluding NGS, underwent pre-incubation at 37 °C for 5 min, followed by further incubation with NGS for 30 min in a water bath. Well-established selective CYP inhibitors were employed as positive controls (40 µM ketoconazole for CYP3A4, 50 µM furafyllin for CYP1A2, 10 µM quinidine for CYP2D6, 125 µM ticlopidine for CYP2C19 and CYP2B6, 10 µM 8-methoxsalen for CYP2A6, and 10 µM sulfaphenazole for CYP2C9). Post incubation, the reaction was halted by adding 50 µL ice-cold 1% formic acid acetonitrile. After centrifugation at 13,200 rpm for 5 min, the supernatant was collected from the sample and subjected to analysis via an LC-MS/MS system. All experiments were performed in triplicate.
(§2) For the experimental method, the reference method was used. The LC-MS/MS system utilized in this study consisted of an Agilent 1260 binary pump HPLC system coupled with the Agilent 6460 Triple Quadrupole mass spectrometer (Agilent Technologies, Santa Clara, CA, USA), featuring an electrospray ionization source. Chromatographic separation was achieved using a Fortis C8 column (2.1 × 100 mm, 5.0 µm; Fortis Technologies Ltd., Neston, UK). The HPLC mobile phases comprised (A) 0.1% formic acid and (B) 0.1% formic acid in 90% acetonitrile. A gradient elution method was employed with an initial solvent B concentration of 15% and a flow rate of 0.25 mL/min. […] The total run time was 11.0 min, and the injection volume was 5 µL. Mass detection was conducted in the positive ion mode using multiple reaction monitoring (MRM). Specific MRM transitions for each analyte are detailed in Table S4.

CYP2C9 [1] = target: T2, CYP2C9 (Homo sapiens, UniProt P11712); experiment: CYP inhibition assay in human liver microsomes (LC-MS/MS cocktail), diclofenac to 4-OH-diclofenac; type: in vitro ADME
T2 construct: Pooled human liver microsomes were purchased from BD Gentest; tissue BD Gentest; host or cells: pooled human liver microsomes
T2 sequence (P11712 whole entry): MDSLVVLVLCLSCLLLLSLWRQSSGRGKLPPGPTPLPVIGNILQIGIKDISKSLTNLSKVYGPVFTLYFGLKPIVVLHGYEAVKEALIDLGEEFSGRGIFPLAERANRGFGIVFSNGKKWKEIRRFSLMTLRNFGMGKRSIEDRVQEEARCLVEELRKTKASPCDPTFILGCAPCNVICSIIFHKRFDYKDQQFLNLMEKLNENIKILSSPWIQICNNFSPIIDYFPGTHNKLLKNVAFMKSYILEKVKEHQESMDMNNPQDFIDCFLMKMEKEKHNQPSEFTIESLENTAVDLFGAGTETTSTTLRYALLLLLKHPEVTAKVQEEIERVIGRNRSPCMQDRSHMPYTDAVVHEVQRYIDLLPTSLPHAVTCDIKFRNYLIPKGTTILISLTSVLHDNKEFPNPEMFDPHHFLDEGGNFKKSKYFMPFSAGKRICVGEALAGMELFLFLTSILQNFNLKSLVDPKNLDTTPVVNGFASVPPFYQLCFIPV
Description: as §1, §2

CYP2D6 = target: T3, CYP2D6 (Homo sapiens, UniProt P10635); experiment: CYP inhibition assay in human liver microsomes (LC-MS/MS cocktail), dextromethorphan to dextrorphan; type: in vitro ADME
T3 construct: Pooled human liver microsomes were purchased from BD Gentest; tissue BD Gentest; host or cells: pooled human liver microsomes
T3 sequence (P10635 whole entry): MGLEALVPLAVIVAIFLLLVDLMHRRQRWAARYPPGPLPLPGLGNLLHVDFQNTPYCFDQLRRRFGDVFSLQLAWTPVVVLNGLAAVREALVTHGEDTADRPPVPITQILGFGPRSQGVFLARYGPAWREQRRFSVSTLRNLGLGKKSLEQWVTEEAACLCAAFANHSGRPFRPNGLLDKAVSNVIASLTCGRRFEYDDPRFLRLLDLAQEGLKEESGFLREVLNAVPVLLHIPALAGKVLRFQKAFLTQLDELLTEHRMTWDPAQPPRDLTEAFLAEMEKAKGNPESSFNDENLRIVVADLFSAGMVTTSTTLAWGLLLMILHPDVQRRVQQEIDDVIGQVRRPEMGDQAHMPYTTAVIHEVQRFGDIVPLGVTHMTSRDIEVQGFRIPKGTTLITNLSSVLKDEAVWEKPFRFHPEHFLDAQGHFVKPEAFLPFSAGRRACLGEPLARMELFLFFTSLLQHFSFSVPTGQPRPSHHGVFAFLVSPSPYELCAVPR
Description: as §1, §2

[2] = test system: seven CYP isozymes (CYP1A2, CYP2A6, CYP2B6, CYP2C9, CYP2C19, CYP2D6, CYP3A4); experiment: CYP inhibition assay in human liver microsomes, statements on all tested isozymes; type: in vitro ADME
Description: as §1
For the experimental method, the reference method was used. The LC-MS/MS system utilized in this study consisted of an Agilent 1260 binary pump HPLC system coupled with the Agilent 6460 Triple Quadrupole mass spectrometer (Agilent Technologies, Santa Clara, CA, USA), featuring an electrospray ionization source. Chromatographic separation was achieved using a Fortis C8 column (2.1 × 100 mm, 5.0 µm; Fortis Technologies Ltd., Neston, UK). The HPLC mobile phases comprised (A) 0.1% formic acid and (B) 0.1% formic acid in 90% acetonitrile. […]

CYP2C9 [3] = test system: CYP2C9; set-up: method as in PMID 34821124, PMID 29488228; details: previous studies; cited from earlier work
[4] = set-up: method as in PMID 25417766; details: rats; 1:4 (paracetamol:GCS) ratio; cited from earlier work
CYP2E1 = test system: CYP2E1; set-up: method as in PMID 20408500; details: related report; cited from earlier work
[5] = cited from earlier work
[6] = set-up: method as in PMID 16942821, PMID 37489348, PMID 31331587; details: typical doses as monotherapy; cited from earlier work

Remaining Activities (% of Control, n = 3) (CYP2A6; test substance 0.3 μM): 107.6 ± 5.2 % of Control | Remaining Activities (% of Control, n = 3) (CYP2A6; test substance 1 μM): 105.3 ± 0.4 % of Control | Remaining Activities (% of Control, n = 3) (CYP2A6; test substance 3 μM): 106.2 ± 2.3 % of Control | Remaining Activities (% of Control, n = 3) (CYP2A6; test substance 10 μM): 101.5 ± 1.4 % of Control | Remaining Activities (% of Control, n = 3) (CYP2A6; test substance 30 μM): 102.1 ± 2.5 % of Control | Remaining Activities (% of Control, n = 3) (CYP2A6; test substance 100 μM): 103.4 ± 2.7 % of Control | Remaining Activities (% of Control, n = 3) (CYP2A6; test substance 300 μM): 97.9 ± 0.4 % of Control | Remaining Activities (% of Control, n = 3) (CYP2A6; test substance 1000 μM): 94.1 ± 7.3 % of Control | Remaining Activities (% of Control, n = 3) (CYP2C9 [1]; test substance 0.3 μM): 115.5 ± 15.2 % of Control | Remaining Activities (% of Control, n = 3) (CYP2C9 [1]; test substance 1 μM): 108.7 ± 1.7 % of Control | Remaining Activities (% of Control, n = 3) (CYP2C9 [1]; test substance 3 μM): 109.2 ± 2.4 % of Control | Remaining Activities (% of Control, n = 3) (CYP2C9 [1]; test substance 10 μM): 104.0 ± 2.3 % of Control | Remaining Activities (% of Control, n = 3) (CYP2C9 [1]; test substance 30 μM): 105.8 ± 2.7 % of Control | Remaining Activities (% of Control, n = 3) (CYP2C9 [1]; test substance 100 μM): 101.2 ± 4.8 % of Control | Remaining Activities (% of Control, n = 3) (CYP2C9 [1]; test substance 300 μM): 97.2 ± 2.8 % of Control | Remaining Activities (% of Control, n = 3) (CYP2C9 [1]; test substance 1000 μM): 91.1 ± 10.1 % of Control | Remaining Activities (% of Control, n = 3) (CYP2D6; test substance 0.3 μM): 107.6 ± 7.4 % of Control | Remaining Activities (% of Control, n = 3) (CYP2D6; test substance 1 μM): 104.9 ± 1.0 % of Control | Remaining Activities (% of Control, n = 3) (CYP2D6; test substance 3 μM): 106.2 ± 3.7 % of Control | Remaining Activities (% of Control, n = 3) (CYP2D6; test substance 10 μM): 101.6 ± 0.5 % of Control | Remaining Activities (% of Control, n = 3) (CYP2D6; test substance 30 μM): 100.4 ± 1.4 % of Control | Remaining Activities (% of Control, n = 3) (CYP2D6; test substance 100 μM): 102.6 ± 1.7 % of Control | Remaining Activities (% of Control, n = 3) (CYP2D6; test substance 300 μM): 100.6 ± 1.3 % of Control | Remaining Activities (% of Control, n = 3) (CYP2D6; test substance 1000 μM): 99.5 ± 4.8 % of Control | inhibitory effects on CYP1A2, CYP2A6, CYP2B6, CYP2C9, CYP2C19, CYP2D6, and CYP3A4 [2]: no inhibitory effects
SMILES: N[C@H]1C(O)O[C@H](CO)[C@@H](O)[C@@H]1O (some centres unmarked) [GCS, glucosamine]
inhibitory effects on CYP2C9 (CYP2C9 [3]): no inhibitory effects | paracetamol's AUC when co-administered with GCS [4]: increase | paracetamol's maximum plasma concentration when co-administered with GCS [4]: increase | inhibitory effect on CYP2E1 (CYP2E1): no inhibitory effect | cases of INR elevation when coumarin anticoagulants were combined with GCS ([5]; EFSA scientific opinion): 40 cases | INR on co-administration with warfarin ([5]; interaction case, co-administration of CS and GCS with warfarin): elevated INR | adverse effects in clinical trials [6]: do not exhibit significant adverse effects
